The results in this text go back to patent publication US20100144793A1, “NOVEL COMPOUNDS FOR THE TREATMENT OF DISEASES ASSOCIATED WITH AMYLOID OR AMYLOID-LIKE PROTEINS” (AC IMMUNE SA, priority 2006, published 2010).

The target in one data set is T1, Aβ1-42 (Homo sapiens, UniProt P05067).
T1 construct: Aβ1-42 lyophilized powder (Bachem) was reconstituted in hexafluoroisopropanol (HFIP) to 1 mM; purchased Bachem
As to the kind of experiment: Thioflavin T spectrofluorescence assay: inhibition of Aβ1-42 aggregation. It counts as biochemical. The protocol: (§1) The objective of this example was to evaluate the capacity of the compounds of the invention to inhibit the aggregation of (Aβ)1-42 peptide and to disaggregate pre-aggregated Aβ1-42 using a thioflavin T spectrofluorescence assay.
(§2) Aβ1-42 lyophilized powder (Bachem) was reconstituted in hexafluoroisopropanol (HFIP) to 1 mM. The peptide solution was sonicated for 15 min at room temperature, agitated overnight, and aliquots were placed into non-siliconized microcentrifuge tubes. The HFIP was then evaporated under a stream of argon. The resulting peptide film was dried under vacuum for 10 min, tightly sealed and stored at −80° C. until used.
Aβ1-42 peptide film was dissolved in DMSO to reach 400 μM. Assay solution in PBS was prepared in non-siliconized incubation tubes to reach the following concentrations: 330 μM small molecule, 33 μM Aβ1-42, 10 μM thioflavin T (ThT), and 12.8% DMSO. Therefore, the final molar ratio of small molecule to Aβ1-42 was 10:1. A positive control without a small molecule was prepared to measure maximum RFU. A negative control without Aβ1-42 was prepared for each small molecule. 3-aminopyrazole trimer (Trimer) was tested in all assays to ascertain reproducibility between independent experiments. The solutions were then incubated for 24 h at 37° C., and the spectrofluorescence (relative fluorescence units; RFU) read in six replicates in black 384-well assay plates (Perkin-Elmer) on a Perkin-Elmer FluoroCount spectrofluorometer. Inhibition of aggregation is expressed as mean % inhibition±1 standard deviation (SD) according to the following equation: […]

The next data set addresses T2, preformed Aβ1-42 fibers (Homo sapiens, UniProt P05067).
T2 construct: Aβ1-42 lyophilized powder (Bachem) was reconstituted in hexafluoroisopropanol (HFIP) to 1 mM; purchased Bachem
As to the kind of experiment: Thioflavin T spectrofluorescence assay: disaggregation of preformed Aβ1-42 fibers. In kind it is biochemical. The following applies: Table 5; 330 μM small molecule, 10:1 molar ratio to pre-aggregated Aβ1-42, additional 24 h at 37° C.; mean ± SD of two independent experiments. As for the experimental part: as §1, §2
This solution was then allowed to aggregate at 37° C. for 24 h after which a small molecule and ThT were added to obtain a final concentration of 330 μM small molecule and 10 μM ThT. […] This solution was then incubated for additional 24 h at 37° C. The spectrofluorescence was then measured and % disaggregation calculated. Disaggregation is expressed as mean % disaggregation±1 standard deviation (SD) according to the same equation as for the inhibition of aggregation.

The target of data set [1] is T3, Oregon Green labeled Aβ(1-42) (Homo sapiens, UniProt P05067).
T3 construct: DMSO-stock solutions of Oregon Green labeled Aβ(1-42) 1:1 with deionized water
As to the kind of experiment: FCS-assay with 5 nM Oregon Green labeled Aβ-peptide (disaggregation of preformed aggregates). It counts as biochemical. As for the experimental part:
In order to analyse the disaggregating properties of the compounds, preformed aggregates were used, which were induced straight before the FCS-measurement by diluting low concentrated (500 nM) DMSO-stock solutions of Oregon Green labeled Aβ(1-42) 1:1 with deionized water. The final concentration of Oregon Green labeled Aβ-peptide was 5 nM in 1×PBS and 3% DMSO.
To improve the reproducibility of the measurements of the concentration dependencies all samples were prepared fourfold.

The mark [2] stands for this setting: Table 3, 10:1 small molecule to Aβ1-42 molar ratio, 24 h at 37° C., mean ± SD of two independent experiments, read-out: % Inhibition.
[3] abbreviates: read-out: Percentage of the “number of peaks” value compared to the control reaction without added ligand.
Where [4] appears, read: read-out: Percentage of the “peaks × height“ value compared to the control reaction without added ligand.

Where a name gives a salt, the structure may show the parent alone. Read-outs that look alike come from different tables or passages of the source.

By inhibition is commonly meant the share of the control response that was lost under treatment. Broadly, the melting point is the temperature of the solid-liquid transition.

T2 sequence (P05067 672-713 limits assumed): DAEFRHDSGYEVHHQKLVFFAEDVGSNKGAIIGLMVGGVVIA
T3 sequence (P05067 672-713 limits assumed): as above
T1 sequence (P05067 672-713 limits assumed): as above

`O=C(CNc1cc(-c2cccs2)[nH]n1)Nc1cc(-c2ccc(Cl)cc2)[nH]n1` [Compound 1af, 2-(5-(Thiophen-2-yl)-1H-pyrazol-3-ylamino)-N-(5-(4-chlorophenyl)-1H-pyrazol-3-yl)acetamide] came in with a melting point of 233 °C. For the same compound, the inhibition at 330 µM on Aβ1-42 (setting [2]) was 37.6 ± 10.4%.
`Cc1ccc(-c2cc(NCCNc3cc(-c4cccs4)[nH]n3)n[nH]2)cc1` [Compound 1ab, N-(5-(Thiophen-2-yl)-1H-pyrazol-3-yl)-N′-(5-p-tolyl-1H-pyrazol-3-yl)ethane-1,2-diamine bishydrochloride]: the inhibition at 330 µM against Aβ1-42 (24 h) was 85 ± 8.6%. Moreover, on preformed Aβ1-42 fibers, the “% disaggregation” value turned out to be 78.0 ± 4.5%. Also, the remaining activity at 0.01 µM in data set [1] (setting [3]) is 55.6%; in data set [1] (setting [4]) it was 27%. Moreover, the values for the remaining activity at 0.1 µM in data set [1] (setting [3]) and in data set [1] (setting [4]) were 54.2% and 51.4%, respectively.
`Cc1ccc(-c2cc(NC(=O)CNc3cc(-c4cccs4)[nH]n3)n[nH]2)cc1` [Compound 1z, 2-(5-(Thiophen-2-yl)-1H-pyrazol-3-ylamino)-N-(5-p-tolyl-1H-pyrazol-3-yl)acetamide]: the melting point is 227 °C. Further, the inhibition at 330 µM on Aβ1-42 (setting [2]) came out at 22.1 ± 12.5%.
For `Cc1ccc(-c2cc(NCC(=O)Nc3cc(-c4ccc(C)cc4)[nH]n3)n[nH]2)cc1` [Compound 1y, N-(5-p-Tolyl-1H-pyrazol-3-yl)-2-(5-p-tolyl-1H-pyrazol-3-ylamino)acetamide], in that order: 238 °C and 30.7 ± 3.8%.
In turn, `Cc1ccc(-c2cc(NCC(=O)Nc3cc(-c4ccc(Cl)cc4)[nH]n3)n[nH]2)cc1` [Compound 1ac, N-(5-(4-Chlorophenyl)-1H-pyrazol-3-yl)-2-(5-p-tolyl-1H-pyrazol-3-ylamino)acetamide] gave a melting point of 257 °C. For the same compound, the inhibition at 330 µM on Aβ1-42 (setting [2]) worked out at 12.4 ± 5.1%.
On Aβ1-42 (24 h), `Clc1ccc(-c2cc(NCCNc3cc(-c4ccc(Cl)cc4)[nH]n3)n[nH]2)cc1` [Compound 1f, N^1,N^2-bis(5-(4-Chlorophenyl)-1H-pyrazol-3-yl)ethane-1,2-diamine bishydrochloride] registered an inhibition at 330 µM of 86.5 ± 7.4%. For the same compound, the “% disaggregation” value at preformed Aβ1-42 fibers was determined as 78.4 ± 1.7%. Also, the remaining activity at 0.2 µM was found to be 55.9% in data set [1] (setting [3]) and 101% in data set [1] (setting [4]).
`Cc1ccc(-c2cc(NCC(=O)Nc3cc(-c4cccs4)[nH]n3)n[nH]2)cc1` [Compound 1aa, N-(5-(Thiophen-2-yl)-1H-pyrazol-3-yl)-2-(5-p-tolyl-1H-pyrazol-3-ylamino)acetamide] gave a melting point of 246 °C. Moreover, the inhibition at 330 µM on Aβ1-42 (setting [2]) worked out at 50.4 ± 0.9%.
`Brc1ccc(-c2cc(NCCNc3cc(-c4ccc(Br)cc4)[nH]n3)n[nH]2)cc1` [Compound 1u, N^1,N^2-bis(5-(4-Bromophenyl)-1H-pyrazol-3-yl)ethane-1,2-diamine bishydrochloride] yielded an inhibition at 330 µM against Aβ1-42 (24 h) of 77.2 ± 1.5%. Further, the “% disaggregation” value at preformed Aβ1-42 fibers is listed as 78.8 ± 5.1%. Moreover, in data set [1] (setting [3]), the remaining activity at 0.2 µM turned out to be 58%, the remaining activity at 1 µM turned out to be 60%, the remaining activity at 5 µM came out at 47.5% and the remaining activity at 25 µM is 45%. In addition, the remaining activity at 100 µM in data set [1] (setting [3]) worked out at 35%. For the same compound, in data set [1] (setting [4]), the remaining activity at 0.2 µM stood at 59.2%, the remaining activity at 1 µM was 62.4%, the remaining activity at 5 µM stood at 48% and the remaining activity at 25 µM is 49.2%. For the same compound, the remaining activity at 100 µM in data set [1] (setting [4]) was 27.2%.
In turn, `Cc1ccc(-c2cc(NCCNc3cc(-c4ccc(Cl)cc4)[nH]n3)n[nH]2)cc1` [Compound 1ae, N-(5-(4-Chlorophenyl)-1H-pyrazol-3-yl)-N′-(5-p-tolyl-1H-pyrazol-3-yl)ethane-1,2-diamine bishydrochloride] came in with an inhibition at 330 µM on Aβ1-42 (24 h) of 83.7 ± 1.7%. The “% disaggregation” value at preformed Aβ1-42 fibers was found to be 76.0 ± 2.1%. Moreover, in data set [1] (setting [3]), the remaining activity at 0.01 µM stood at 72.3%, the remaining activity at 0.1 µM came out at 59.8% and the remaining activity at 0.2 µM turned out to be 45.5%. Also, in data set [1] (setting [4]), the remaining activity at 0.01 µM is 65.5%, the remaining activity at 0.1 µM was 60.4% and the remaining activity at 0.2 µM turned out to be 53.1%.
In turn, `Cc1ccc(-c2cc(NCCNc3cc(-c4ccc(C)cc4)[nH]n3)n[nH]2)cc1` [Compound 1d, N^1,N^2-bis(5-p-Tolyl-1H-pyrazol-3-yl)ethane-1,2-diamine bishydrochloride] gave an inhibition at 330 µM at Aβ1-42 (24 h) of 88.3 ± 1%. Besides, the “% disaggregation” value at preformed Aβ1-42 fibers was 77.1 ± 2.5%. For the same compound, the values for the remaining activity at 0.2 µM in data set [1] (setting [3]) and in data set [1] (setting [4]) were 72.8% and 83.1%, respectively.
`Cc1ccc(-c2cc(NC(=O)CNc3cc(-c4ccc(Cl)cc4)[nH]n3)n[nH]2)cc1` [Compound 1ad, 2-(5-(4-Chlorophenyl)-1H-pyrazol-3-ylamino)-N-(5-p-tolyl-1H-pyrazol-3-yl)acetamide] showed a melting point of 251 °C. Moreover, the inhibition at 330 µM on Aβ1-42 (setting [2]) turned out to be 55 ± 11.9%.
The compound `Clc1ccc(-c2cc(NCCNc3cc(-c4cccs4)[nH]n3)n[nH]2)cc1` [Compound 1ah, N-(5-(4-Chlorophenyl)-1H-pyrazol-3-yl)-N′-(5-(thiophen-2-yl)-1H-pyrazol-3-yl)ethane-1,2-diamine bishydrochloride] registered an inhibition at 330 µM at Aβ1-42 (24 h) of 89.1 ± 2.5%. In addition, the “% disaggregation” value at preformed Aβ1-42 fibers is 88.8 ± 1.6%. Besides, in data set [1] (setting [3]), the remaining activity at 0.01 µM was 44.4%, the remaining activity at 0.1 µM came to 61.1%, the remaining activity at 0.2 µM worked out at 60.8% and the remaining activity at 1 µM stood at 83.7%. Moreover, in data set [1] (setting [3]), the remaining activity at 5 µM amounted to 82.6%, the remaining activity at 25 µM came to 75% and the remaining activity at 100 µM stood at 40.9%. In data set [1] (setting [4]), the remaining activity at 0.01 µM was found to be 38.9%, the remaining activity at 0.1 µM is 44.8%, the remaining activity at 0.2 µM was found to be 69.3% and the remaining activity at 1 µM is 136%. Further, in data set [1] (setting [4]), the remaining activity at 5 µM stood at 112%, the remaining activity at 25 µM is 254% and the remaining activity at 100 µM came to 143%.
Compound `Cc1ccc(-c2cc(NCC(=O)Nc3cc(C)[nH]n3)n[nH]2)cc1` [Compound 1x, N-(5-Methyl-1H-pyrazol-3-yl)-2-(5-p-tolyl-1H-pyrazol-3-ylamino)acetamide] displayed a melting point of 180 °C. Further, on Aβ1-42 (setting [2]), the inhibition at 330 µM was 35.9 ± 4.7%.
`COc1ccc(-c2cc(NCCNc3cc(-c4ccc(OC)cc4)[nH]n3)n[nH]2)cc1` [Compound 1g, N^1,N^2-bis(5-(4-Methoxyphenyl)-1H-pyrazol-3-yl)ethane-1,2-diamine bishydrochloride] registered an inhibition at 330 µM on Aβ1-42 (24 h) of 68.2 ± 7.7%. In addition, the “% disaggregation” value on preformed Aβ1-42 fibers is 66.6 ± 4.2%.
Regarding `O=C(CNc1cc(-c2ccc(Cl)cc2)[nH]n1)Nc1cc(-c2cccs2)[nH]n1` [Compound 1ag, N-(5-(Thiophen-2-yl)-1H-pyrazol-3-yl)-2-(5-(4-chlorophenyl)-1H-pyrazol-3-ylamino)acetamide], the melting point worked out at 257 °C. For the same compound, the inhibition at 330 µM at Aβ1-42 (setting [2]) was 20.8 ± 5.7%.
For `c1[nH]nc(NCCNc2n[nH]cc2C2CC2)c1C1CC1` (as salt: hydrochloride) [Compound 1v, N^1,N^2-bis(4-Cyclopropyl-1H-pyrazol-3-yl)ethane-1,2-diamine bishydrochloride], the melting point was 178 to 182 °C (dec.).
